# Values quoted from earlier work in article PMC10363405 (Methods in molecular biology (Clifton, N.J.), 2022).
# Target: β-tubulin
# Test: fluorescence enhancement titration with crosslinked microtubules
# Format: binding, Bos taurus
smiles,measurement,value
CC(=O)OC1C(=O)C2(C)C(OC(=O)CCNC(=O)c3cc4cc(F)c(O)c(F)c4oc3=O)CC3OCC3(OC(C)=O)C2C(OC(=O)c2ccccc2)C2(O)CC(OC(=O)C(O)C(NC(=O)c3ccccc3)c3ccccc3)C(C)=C1C2(C)C (stereo not drawn) [PB-β-Ala-Taxol],Kd,63 ± 8 nM
